Measured values: ChEMBL document CHEMBL5634158, “From garden to lab: C-3 chemical modifications of tomatidine unveil broad-spectrum ATP synthase inhibitors to combat bacterial resistance” (Eur J Med Chem, 2023)
In brackets after ≈: the same amount, converted by molar mass. Each block holds one compound with its values, some of them ahead of it.

Key:
[1] = system: Escherichia coli; assay: Antibacterial activity against Escherichia coli ATCC 25922 assessed as reduction in microbial growth incubated for 20 hrs under aerobic condition by CLSI based broth microdilution method; type: functional
[2] = system: Staphylococcus aureus; assay: Antibacterial activity against Staphylococcus aureus ATCC 29213 assessed as reduction in microbial growth incubated for 20 hrs under aerobic condition by CLSI based broth microdilution method; type: functional
[3] = system: Staphylococcus aureus; assay: Antibacterial activity against Staphylococcus aureus ATCC 29213 hemB SCV assessed as reduction in microbial growth incubated for 20 hrs under aerobic condition by CLSI based broth microdilution method; type: functional
[4] = system: Escherichia coli; assay: Antibacterial activity against Escherichia coli ATCC 25922 assessed as fold decrease in MIC for 20 hrs under aerobic condition by CLSI based broth microdilution method; type: functional
[5] = system: Staphylococcus aureus; assay: Antibacterial activity against Staphylococcus aureus ATCC 29213 SCV assessed as reduction in microbial growth by CLSI based broth microdilution method; type: functional
[6] = system: Staphylococcus aureus; assay: Antibacterial activity against wild type Staphylococcus aureus ATCC 29213 assessed as reduction in microbial growth by CLSI based broth microdilution method; type: functional
[7] = Inhibition of Escherichia coli ATCC 25922 ATP synthase activity preincubated for 30 mins followed by NADH/ADP addition and measured after 60 mins by luciferin/luciferase luminescence assay
[8] = Inhibition of Staphylococcus aureus ATCC 29213 ATP synthase activity preincubated for 30 mins followed by NADH/ADP addition and measured after 60 mins by luciferin/luciferase luminescence assay
[9] = system: Escherichia coli; assay: Antibacterial activity against antibiotic susceptible Escherichia coli ATCC 25922 assessed as reduction in microbial growth incubated for 20 hrs under aerobic condition by CLSI based broth microdilution method; type: functional
[10] = system: Escherichia coli; assay: Antibacterial activity against NDM1-producing carbapenem/antibiotic resistant Escherichia coli ATCC BAA-2471 assessed as reduction in microbial growth incubated for 20 hrs under aerobic condition by CLSI based broth microdilution method; type: functional
[11] = system: Escherichia coli; assay: Antibacterial activity against antibiotic resistant Escherichia coli producing extended spectrum beta-lactamase CTX-M-15 assessed as reduction in microbial growth incubated for 20 hrs under aerobic condition by CLSI based broth microdilution method; type: functional
[12] = system: Escherichia coli; assay: Antibacterial activity against antibiotic susceptible Escherichia coli producing extended spectrum beta-lactamase CTX-M-15 assessed as reduction in microbial growth incubated for 20 hrs under aerobic condition by CLSI based broth microdilution method; type: functional
[13] = system: Escherichia coli; assay: Antibacterial activity against antibiotic susceptible /colistin resistant Escherichia coli harboring mcr-1 gene assessed as reduction in microbial growth incubated for 20 hrs under aerobic condition by CLSI based broth microdilution method; type: functional
[14] = system: Escherichia coli; assay: microbe, parasite or virus in culture; conditions: 20 h
Description: Antibacterial activity against antibiotic resistant Escherichia coli producing extended spectrum beta-lactamase KPC assessed as reduction in microbial growth incubated for 20 hrs under aerobic condition by CLSI based broth microdilution method

[15] = system: Staphylococcus aureus; assay: microbe, parasite or virus in culture; conditions: ATCC 700699/Mu50, 20 h
Description: Antibacterial activity against antibiotic intermediately resitant/methicillin resistant Staphylococcus aureus ATCC 700699/Mu50 assessed as reduction in microbial growth incubated for 20 hrs under aerobic condition by CLSI based broth microdilution method

[16] = system: Escherichia coli; assay: Antibacterial activity against NDM1-producing carbapenem resistant/antibiotic susceptible Escherichia coli ATCC BAA-2471 assessed as reduction in microbial growth incubated for 20 hrs under aerobic condition by CLSI based broth microdilution method; type: functional, organism-based
[17] = system: Escherichia coli; assay: Antibacterial activity against antibiotic susceptible Escherichia coli producing extended spectrum beta-lactamase KPC assessed as reduction in microbial growth incubated for 20 hrs under aerobic condition by CLSI based broth microdilution method; type: functional
[18] = system: Escherichia coli; assay: Antibacterial activity against antibiotic/colistin resistant Escherichia coli harboring mcr-1 gene assessed as reduction in microbial growth incubated for 20 hrs under aerobic condition by CLSI based broth microdilution method; type: functional
[19] = system: Staphylococcus aureus; assay: Antibacterial activity against antibiotic susceptible Staphylococcus aureus ATCC 29213 assessed as reduction in microbial growth incubated for 20 hrs under aerobic condition by CLSI based broth microdilution method; type: functional
[20] = system: Staphylococcus aureus; assay: Antibacterial activity against antibiotic susceptible Staphylococcus aureus ATCC 29213 hemB SCV assessed as reduction in microbial growth incubated for 20 hrs under aerobic condition by CLSI based broth microdilution method; type: functional
[21] = system: Staphylococcus aureus; assay: Antibacterial activity against antibiotic resistant methicillin resistant Staphylococcus aureus ATCC BAA-41/USA-100 assessed as reduction in microbial growth incubated for 20 hrs under aerobic condition by CLSI based broth microdilution method; type: functional
[22] = system: Staphylococcus aureus; assay: Antibacterial activity against antibiotic resitant/methicillin resistant Staphylococcus aureus ATCC 700699/Mu50 assessed as reduction in microbial growth incubated for 20 hrs under aerobic condition by CLSI based broth microdilution method; type: functional
[23] = system: Escherichia coli; assay: Antibacterial activity against Escherichia coli MC4100 assessed as reduction in bacterial growth by CLSI based broth microdilution method; type: functional
[24] = system: Escherichia coli; assay: Antibacterial activity against Escherichia coli MC4100 harbouring acrAB mutant assessed as reduction in bacterial growth by CLSI based broth microdilution method; type: functional
[25] = system: Escherichia coli; assay: Antibacterial activity against Escherichia coli MC4100 harbouring lptD mutant assessed as reduction in bacterial growth by CLSI based broth microdilution method; type: functional
[26] = system: Escherichia coli; assay: Antibacterial activity against Escherichia coli producing extended spectrum beta-lactamase CTX-M-15 assessed as reduction in microbial growth incubated for 20 hrs under aerobic condition by CLSI based broth microdilution method; type: functional
[27] = Inhibition of mitochondrial ATP synthase in human HepG2 cells preincubated for 30 mins followed by NADH/ADP addition and measured after 60 mins by luminescence assay; type: cell-based
[28] = system: Staphylococcus aureus; assay: Antibacterial activity against methicillin resistant Staphylococcus aureus ATCC BAA-41/USA-100 assessed as reduction in microbial growth incubated for 20 hrs under aerobic condition by CLSI based broth microdilution method; type: functional
[29] = system: Staphylococcus aureus; assay: Antibacterial activity against methicillin resistant Staphylococcus aureus ATCC 700699/Mu50 assessed as reduction in microbial growth incubated for 20 hrs under aerobic condition by CLSI based broth microdilution method; type: functional
[30] = system: Escherichia coli; assay: Antibacterial activity against NDM1-producing carbapenem-resistant Escherichia coli ATCC BAA-2471 assessed as reduction in microbial growth incubated for 20 hrs under aerobic condition by CLSI based broth microdilution method; type: functional
[31] = system: Escherichia coli; assay: Antibacterial activity against Escherichia coli producing extended spectrum beta-lactamase KPC assessed as reduction in microbial growth incubated for 20 hrs under aerobic condition by CLSI based broth microdilution method; type: functional
[32] = system: Escherichia coli; assay: Antibacterial activity against colistin resistant Escherichia coli harboring mcr-1 gene assessed as reduction in microbial growth incubated for 20 hrs under aerobic condition by CLSI based broth microdilution method; type: functional
[33] = system: Escherichia coli; assay: Selectivity ratio of MIC for Escherichia coli MC4100 to MIC for Escherichia coli MC4100 harbouring acrAB mutant; type: toxicity, organism-based; conditions: in vivo
[34] = system: Staphylococcus aureus; assay: Antibacterial activity against antibiotic resistant Staphylococcus aureus ATCC 29213 hemB SCV assessed as reduction in microbial growth incubated for 20 hrs under aerobic condition by CLSI based broth microdilution method; type: functional
[35] = system: Staphylococcus aureus; assay: Antibacterial activity against Staphylococcus aureus ATCC 29213 assessed as fold decrease in MIC incubated for 20 hrs under aerobic condition by CLSI based broth microdilution method; type: functional

MIC [1]: 8 µg/mL
MIC [2]: 2 µg/mL
MIC [3]: ≤ 0.25 µg/mL
Compound: C[C@H]1CC[C@]2(NC1)O[C@H]1C[C@H]3[C@@H]4CC[C@H]5CC(NC[C@@H](N)Cc6ccc(Cl)cc6)CC[C@]5(C)[C@H]4CC[C@]3(C)[C@H]1[C@@H]2C (mixture of isomers)
fold change (FC) [4]: 2

Compound: C[C@H]1CC[C@]2(NC1)O[C@H]1C[C@H]3[C@@H]4CC[C@H]5C[C@@H](O)CC[C@]5(C)[C@H]4CC[C@]3(C)[C@H]1[C@@H]2C [TOMATIDINE]
MIC [1]: > 128 µg/mL
MIC [2]: > 64 µg/mL
MIC [3]: 0.06 µg/mL
MIC [5]: 0.06 µg/mL
MIC [6]: > 64 µg/mL

Compound: O=[N+]([O-])c1ccc(Cl)c2nonc12
IC50 [7]: 3940 nM
IC50 [8]: 1700 nM

Compound: CC(C)(O/N=C(\C(=O)N[C@@H]1C(=O)N2C(C(=O)[O-])=C(C[n+]3ccccc3)CS[C@H]12)c1csc(N)n1)C(=O)O [CEFTAZIDIME]
MIC [9]: 0.25 µg/mL
MIC [10]: > 32 µg/mL
MIC [11]: > 32 µg/mL
MIC [12]: 1 µg/mL
MIC [13]: 0.25 µg/mL
MIC [14]: > 32 µg/mL

Compound: CN[C@H](CC(C)C)C(=O)N[C@H]1C(=O)N[C@@H](CC(N)=O)C(=O)N[C@H]2C(=O)N[C@H]3C(=O)N[C@H](C(=O)N[C@H](C(=O)O)c4cc(O)cc(O)c4-c4cc3ccc4O)[C@H](O)c3ccc(c(Cl)c3)Oc3cc2cc(c3O[C@@H]2O[C@H](CO)[C@@H](O)[C@H](O)[C@H]2O[C@H]2C[C@](C)(N)[C@H](O)[C@H](C)O2)Oc2ccc(cc2Cl)[C@H]1O [VANCOMYCIN]
MIC [15]: 8 µg/mL (≈ 5.52 µM)

Compound: COLISTIN
MIC [9]: 1 µg/mL
MIC [16]: 1 µg/mL
MIC [17]: 0.5 µg/mL
MIC [18]: 32 µg/mL

Compound: Cc1onc(-c2ccccc2)c1C(=O)N[C@@H]1C(=O)N2[C@@H]1SC(C)(C)[C@@H]2C(=O)O [OXACILLIN]
MIC [19]: 0.24 µg/mL
MIC [20]: 0.12 µg/mL
MIC [21]: > 128 µg/mL
MIC [22]: > 128 µg/mL

Compound: C[C@H]1CC[C@]2(NC1)O[C@H]1C[C@H]3[C@@H]4CC[C@H]5CC(NC[C@@H](N)Cc6ccc(Cl)c(Cl)c6)CC[C@]5(C)[C@H]4CC[C@]3(C)[C@H]1[C@@H]2C (mixture of isomers)
MIC [1]: 4 µg/mL
MIC [2]: 1 µg/mL
MIC [3]: 0.5 µg/mL
MIC [23]: 8 µg/mL
MIC [24]: 4 µg/mL
MIC [25]: 2 µg/mL
MIC [26]: 4 µg/mL
IC50 [7]: 1950 nM
IC50 [8]: 830 nM
IC50 [27]: 13900 nM
MIC [28]: 2 µg/mL
MIC [29]: 1 µg/mL
MIC [30]: 8 µg/mL
MIC [31]: 8 µg/mL
MIC [32]: 8 µg/mL

Compound: C[C@H]1CC[C@]2(NC1)O[C@H]1C[C@H]3[C@@H]4CC[C@H]5CC(NC[C@@H](N)Cc6ccc(O)cc6)CC[C@]5(C)[C@H]4CC[C@]3(C)[C@H]1[C@@H]2C (mixture of isomers)
MIC [1]: 64 µg/mL
MIC [2]: 8 µg/mL
MIC [3]: 0.25 µg/mL
MIC [23]: > 128 µg/mL
MIC [24]: 16 µg/mL
MIC [25]: 8 µg/mL
IC50 [7]: 1600 nM
Selectivity ratio [33]: > 8

Compound: NC[C@H]1O[C@H](O[C@H]2[C@H](O)[C@@H](O[C@H]3O[C@H](CO)[C@@H](O)[C@H](N)[C@H]3O)[C@H](N)C[C@@H]2N)[C@H](N)C[C@@H]1O [TOBRAMYCIN]
MIC [19]: 0.5 µg/mL
MIC [34]: 16 µg/mL
MIC [21]: > 64 µg/mL
MIC [22]: > 64 µg/mL
MIC [9]: 0.24 µg/mL
MIC [10]: 64 µg/mL
MIC [11]: 64 µg/mL
MIC [12]: ≤ 0.03 µg/mL
MIC [17]: 0.5 µg/mL
MIC [18]: 32 µg/mL

Compound: C[C@H]1CC[C@]2(NC1)O[C@H]1C[C@H]3[C@@H]4CC[C@H]5CC(NC[C@@H](N)Cc6ccc(I)cc6)CC[C@]5(C)[C@H]4CC[C@]3(C)[C@H]1[C@@H]2C (mixture of isomers)
MIC [1]: 4 µg/mL
MIC [2]: 2 µg/mL
MIC [3]: ≤ 0.25 µg/mL
MIC [23]: 8 µg/mL
MIC [24]: 4 µg/mL
MIC [25]: 2 µg/mL
IC50 [7]: 1500 nM
fold change (FC) [4]: 2

MIC [1]: 8 µg/mL
MIC [2]: 2 µg/mL
MIC [3]: ≤ 0.25 µg/mL
Compound: C[C@H]1CC[C@]2(NC1)O[C@H]1C[C@H]3[C@@H]4CC[C@H]5CC(NC[C@@H](N)Cc6ccc(Br)cc6)CC[C@]5(C)[C@H]4CC[C@]3(C)[C@H]1[C@@H]2C (stereo partly specified)
fold change (FC) [4]: 2

MIC [1]: > 128 µg/mL
MIC [2]: 16 µg/mL
Compound: C[C@H]1CC[C@]2(NC1)O[C@H]1C[C@H]3[C@@H]4CC[C@H]5CC(NC[C@@H]6Cc7ccccc7CN6)CC[C@]5(C)[C@H]4CC[C@]3(C)[C@H]1[C@@H]2C (mixture of isomers)
fold change (FC) [4]: 2
fold change (FC) [35]: 2

Compound: C[C@H]1CC[C@]2(NC1)O[C@H]1C[C@H]3[C@@H]4CC[C@H]5CC(NCCN)CC[C@]5(C)[C@H]4CC[C@]3(C)[C@H]1[C@@H]2C (stereo partly specified)
MIC [1]: 32 µg/mL
MIC [2]: 8 µg/mL
MIC [3]: 0.006 µg/mL
MIC [23]: 16 µg/mL (≈ 35 µM)
MIC [24]: 8 µg/mL (≈ 17.5 µM)
MIC [25]: 0.5 µg/mL (≈ 1.09 µM)
IC50 [7]: 1300 nM

Compound: C[C@@H](O)[C@H]1C(=O)N2C(C(=O)O)=C(S[C@@H]3CN[C@H](C(=O)N(C)C)C3)[C@H](C)[C@H]12 [MEROPENEM]
MIC [19]: 0.12 µg/mL
MIC [20]: 0.06 µg/mL
MIC [21]: > 16 µg/mL
MIC [22]: > 16 µg/mL
MIC [9]: ≤ 0.03 µg/mL
MIC [10]: > 16 µg/mL
MIC [13]: ≤ 0.03 µg/mL
MIC [14]: 8 µg/mL (≈ 20.9 µM)

Compound: C[C@H]1CC[C@]2(NC1)O[C@H]1C[C@H]3[C@@H]4CC[C@H]5CC(NCCN6CCOCC6)CC[C@]5(C)[C@H]4CC[C@]3(C)[C@H]1[C@@H]2C (mixture of isomers)
MIC [1]: > 128 µg/mL
MIC [2]: 64 µg/mL
MIC [23]: > 128 µg/mL
MIC [24]: 128 µg/mL
MIC [25]: 64 µg/mL
IC50 [7]: 6500 nM
